From ChEMBL document CHEMBL1201862, “PubChem BioAssay data set” (2004)
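Test compounds were applied to cells in 96-well plates for 48 hours at 5 doses. GI50: concentration for 50% inhibition of growth.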 Calls of active or inactive are those of the source. No stated cut-off is given here; in the data, active = GI50 up to about 1.1 µM and inactive = higher.

What was measured:
Experiment in all cases: DTP human tumour cell line panel, 48 h
RXF 393 = test system: RXF 393
OVCAR-8 = test system: OVCAR-8
HCT-15 = test system: HCT-15
OVCAR-4 = test system: OVCAR-4
CCRF-CEM = test system: CCRF-CEM
U-251 = test system: U-251
RPMI-8226 = test system: RPMI-8226
KM12 = test system: KM12
Malme-3M = test system: Malme-3M
SN12C = test system: SN12C
M19-MEL = test system: M19-MEL
SW-620 = test system: SW-620
HT-29 = test system: HT-29
IGROV-1 = test system: IGROV-1
NCI-H226 = test system: NCI-H226
ACHN = test system: ACHN
SF-268 = test system: SF-268
NCI/ADR-RES = test system: NCI/ADR-RES
DU-145 = test system: DU-145
Hs-578T = test system: Hs-578T

SMILES | GI50 (RXF 393) | GI50 (OVCAR-8) | GI50 (HCT-15) | GI50 (OVCAR-4) | GI50 (CCRF-CEM) | GI50 (U-251) | GI50 (RPMI-8226) | GI50 (KM12) | GI50 (Malme-3M) | GI50 (SN12C) | GI50 (M19-MEL) | GI50 (SW-620) | GI50 (HT-29) | GI50 (IGROV-1) | GI50 (NCI-H226) | GI50 (ACHN) | GI50 (SF-268) | GI50 (NCI/ADR-RES) | GI50 (DU-145) | GI50 (Hs-578T)
CCc1nc2c(O)ccc(O)c2nc1C | 11.5 µM (inactive) | 10 µM (inactive) | 16.4 µM | 6.75 µM (inactive) | 2.9 µM (inactive) | 16.5 µM (inactive) | 3.8 µM (inactive) | 17 µM (inactive) | 15.8 µM (inactive) | 16 µM (inactive) | 7.35 µM (inactive) | 2.15 µM (inactive) | 17.2 µM (inactive) | 19 µM (inactive) | 15.8 µM (inactive) | 10.7 µM (inactive) | 18.7 µM (inactive) | – | – | –
CC(C)(C)c1cc2c3c(c1)C(C(F)(F)F)(C(F)(F)F)O[Te]3(C)OC2(C(F)(F)F)C(F)(F)F | > 100 µM (inactive) | > 10 µM (inactive) | > 100 µM | > 100 µM (inactive) | > 100 µM (inactive) | > 100 µM (inactive) | > 100 µM (inactive) | > 100 µM (inactive) | > 100 µM (inactive) | > 100 µM (inactive) | > 100 µM (inactive) | > 100 µM (inactive) | > 100 µM (inactive) | > 100 µM (inactive) | > 100 µM (inactive) | > 100 µM (inactive) | > 100 µM (inactive) | – | – | –
Nc1ccn(C2CCC(CO)O2)c(=O)n1 (stereo not given) | > 100 µM (inactive) | 156 µM (inactive) | > 100 µM | > 83 µM (inactive) | 46.5 µM (inactive) | > 100 µM (inactive) | > 100 µM (inactive) | > 100 µM (inactive) | > 100 µM (inactive) | > 100 µM (inactive) | > 100 µM (inactive) | > 94.8 µM (inactive) | > 100 µM (inactive) | > 100 µM (inactive) | > 93.5 µM (inactive) | 785 µM (inactive) | > 62.8 µM (inactive) | 159 µM (inactive) | 719 µM (inactive) | > 1000 µM (inactive)
CC12OC3CC(O1)C1(C=O)C4CCC5(C)C(c6ccc(=O)oc6)CCC5(O)C4CCC1(C3)O2 (stereo not given) | 0.104 µM (active) | 0.256 µM (active) | 0.212 µM | 0.155 µM (active) | 0.0735 µM (active) | 0.293 µM (active) | 0.0313 µM (active) | 0.379 µM (active) | 0.198 µM (active) | 0.0621 µM (active) | 0.258 µM (active) | 0.177 µM (active) | 0.385 µM (active) | 0.341 µM (active) | 0.417 µM (active) | 0.0476 µM (active) | 0.103 µM (active) | – | – | –
O=C1CC(c2c(-c3ccccc3)[nH]c3ccccc23)C(=O)N1 (stereo not given) | > 100 µM (inactive) | > 100 µM (inactive) | > 100 µM | > 100 µM (inactive) | > 100 µM (inactive) | > 100 µM (inactive) | > 100 µM (inactive) | > 100 µM (inactive) | > 100 µM (inactive) | – | > 100 µM (inactive) | > 100 µM (inactive) | > 100 µM (inactive) | > 100 µM (inactive) | > 100 µM (inactive) | > 100 µM (inactive) | – | – | – | –
C#CCOCn1cnc2c(Sc3c([N+](=O)[O-])ncn3C)ncnc21 | > 100 µM (inactive) | > 100 µM (inactive) | > 100 µM | 87.5 µM (inactive) | 97.7 µM (inactive) | > 100 µM (inactive) | > 100 µM (inactive) | > 100 µM (inactive) | > 100 µM (inactive) | > 100 µM (inactive) | > 100 µM (inactive) | > 100 µM (inactive) | > 100 µM (inactive) | > 100 µM (inactive) | > 100 µM (inactive) | > 100 µM (inactive) | > 100 µM (inactive) | – | – | –
Fc1ccc(C2SCc3nc4ccccc4n32)c(F)c1 (stereo not given) | 98.4 µM (inactive) | 79.3 µM (inactive) | 49.4 µM | 95.7 µM (inactive) | 51.6 µM (inactive) | 75.5 µM (inactive) | 37.9 µM (inactive) | 46.3 µM (inactive) | 80.4 µM (inactive) | > 100 µM (inactive) | 65.5 µM (inactive) | > 100 µM (inactive) | 81.1 µM (inactive) | > 100 µM (inactive) | > 100 µM (inactive) | 82.4 µM (inactive) | > 100 µM (inactive) | – | – | –
Cc1ccc(S(=O)(=O)N2c3ccccc3[C@H]3CCC=C[C@H]32)cc1 | 3.61 µM (inactive) | 20.5 µM (inactive) | 4.59 µM | 17.3 µM (inactive) | 6.9 µM (inactive) | 4.78 µM (inactive) | 6.55 µM (inactive) | 3.83 µM (inactive) | 4.07 µM (inactive) | 14.5 µM (inactive) | 4.68 µM (inactive) | 4.51 µM (inactive) | 3.45 µM (inactive) | 10.6 µM (inactive) | 10.5 µM (inactive) | 19.3 µM (inactive) | 10.9 µM (inactive) | – | 20.3 µM (inactive) | 15.4 µM (inactive)
CCOC(=O)CN.CCOC(=O)Nc1ccc(S(=O)(=O)OC)cc1.CCOC(=O)Nc1ccc(S(=O)(=O)OC)cc1 | – | > 50 µM (inactive) | > 50 µM | > 50 µM (inactive) | > 50 µM (inactive) | 9.25 µM (inactive) | > 50 µM (inactive) | > 50 µM (inactive) | > 50 µM (inactive) | > 50 µM (inactive) | > 50 µM (inactive) | 7.83 µM (inactive) | > 50 µM (inactive) | > 50 µM (inactive) | > 50 µM (inactive) | > 50 µM (inactive) | > 50 µM (inactive) | – | – | –
Cc1ccc(O)c(C(=O)CCCC(=O)c2cc(C)ccc2O)c1 | – | > 100 µM (inactive) | 45.8 µM | 74.5 µM (inactive) | > 100 µM (inactive) | 52.4 µM (inactive) | > 100 µM (inactive) | > 100 µM (inactive) | > 100 µM (inactive) | > 100 µM (inactive) | > 100 µM (inactive) | 30.2 µM (inactive) | > 100 µM (inactive) | > 100 µM (inactive) | > 100 µM (inactive) | > 100 µM (inactive) | > 100 µM (inactive) | – | – | –
CC(C)(Br)C(=O)C(Br)Br | 3.16 µM (inactive) | 5.27 µM (inactive) | – | 5.09 µM (inactive) | 1.51 µM (inactive) | > 28 µM (inactive) | – | 16.8 µM (inactive) | 2.01 µM (inactive) | > 24.4 µM (inactive) | 6.01 µM (inactive) | 1.89 µM (inactive) | 8.17 µM (inactive) | 8.22 µM (inactive) | 16.7 µM (inactive) | 10.5 µM (inactive) | 14 µM (inactive) | 4.82 µM (inactive) | 33.7 µM (inactive) | 6.89 µM (inactive)
CC(C(=O)c1ccc(O)cc1)C1(O)C(=O)Nc2c(Cl)cc(Cl)cc21 (stereo not given) | 24.6 µM (inactive) | 46.3 µM (inactive) | 71.6 µM | 21.7 µM (inactive) | 26.6 µM (inactive) | > 78 µM (inactive) | 25.6 µM (inactive) | > 87.3 µM (inactive) | > 100 µM (inactive) | 44.9 µM (inactive) | 20.6 µM (inactive) | 32.9 µM (inactive) | > 73.8 µM (inactive) | > 100 µM (inactive) | 19.1 µM (inactive) | 16.6 µM (inactive) | > 76.9 µM (inactive) | – | – | –
CC(=O)OC1C/C(C)=C/[C@H](O)CC(C)/C=C/[C@@]2(C)CCC(C(C)(C)O)C12 (stereo not given in full) | > 100 µM (inactive) | > 100 µM (inactive) | > 100 µM | > 100 µM (inactive) | > 100 µM (inactive) | > 100 µM (inactive) | > 100 µM (inactive) | > 100 µM (inactive) | > 100 µM (inactive) | > 100 µM (inactive) | > 100 µM (inactive) | > 100 µM (inactive) | > 100 µM (inactive) | > 100 µM (inactive) | > 100 µM (inactive) | > 100 µM (inactive) | > 100 µM (inactive) | – | – | –
Cn1ccc(=NS(=O)(=O)c2ccccc2)cc1 | > 100 µM (inactive) | > 100 µM (inactive) | – | – | > 100 µM (inactive) | > 100 µM (inactive) | > 100 µM (inactive) | > 100 µM (inactive) | > 100 µM (inactive) | – | > 100 µM (inactive) | > 100 µM (inactive) | > 100 µM (inactive) | > 100 µM (inactive) | – | > 100 µM (inactive) | > 100 µM (inactive) | – | – | –
COC(=O)/C(C#N)=C1\CCc2ccccc21 | > 100 µM (inactive) | > 100 µM (inactive) | > 100 µM | > 100 µM (inactive) | > 100 µM (inactive) | – | > 100 µM (inactive) | > 100 µM (inactive) | > 100 µM (inactive) | > 100 µM (inactive) | > 100 µM (inactive) | > 100 µM (inactive) | > 100 µM (inactive) | > 100 µM (inactive) | > 100 µM (inactive) | > 100 µM (inactive) | > 100 µM (inactive) | – | – | –
NC1=NS(=O)(=O)Nc2nc(-c3ccccc3)c(-c3ccccc3)nc21 | > 100 µM (inactive) | > 100 µM (inactive) | > 100 µM | > 100 µM (inactive) | > 100 µM (inactive) | > 100 µM (inactive) | > 100 µM (inactive) | > 100 µM (inactive) | > 100 µM (inactive) | > 100 µM (inactive) | > 100 µM (inactive) | > 100 µM (inactive) | > 100 µM (inactive) | > 100 µM (inactive) | > 100 µM (inactive) | > 100 µM (inactive) | > 100 µM (inactive) | – | – | –
CC1NS(=O)(=O)N(C)C1=O (stereo not given) | > 100 µM (inactive) | > 100 µM (inactive) | > 100 µM | > 100 µM (inactive) | > 100 µM (inactive) | > 100 µM (inactive) | > 100 µM (inactive) | > 100 µM (inactive) | > 100 µM (inactive) | > 100 µM (inactive) | > 100 µM (inactive) | > 100 µM (inactive) | – | > 100 µM (inactive) | > 100 µM (inactive) | > 100 µM (inactive) | > 100 µM (inactive) | – | – | –
